In PubChem BioAssay (NCI):
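Each compound was tested at five concentrations against cells in 96-well plates for 48 hours. TGI is the concentration that stops growth completely.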

Legend:
Assay in all cases: NCI tumour cell line growth inhibition, 48 h
786-0 renal = system: 786-0 renal
A498 renal = system: A498 renal
A549 NSCLC = system: A549 NSCLC
ACHN renal = system: ACHN renal
BT-549 breast = system: BT-549 breast
CAKI-1 renal = system: CAKI-1 renal
CCRF-CEM leukemia = system: CCRF-CEM leukemia
COLO 205 colon = system: COLO 205 colon
DU-145 prostate = system: DU-145 prostate
EKVX NSCLC = system: EKVX NSCLC
HCC-2998 colon = system: HCC-2998 colon
HCT-116 colon = system: HCT-116 colon
HCT-15 colon = system: HCT-15 colon
HOP-62 NSCLC = system: HOP-62 NSCLC
HS 578T breast = system: HS 578T breast
HT29 colon = system: HT29 colon
K-562 leukemia = system: K-562 leukemia
KM12 colon = system: KM12 colon
M14 melanoma = system: M14 melanoma
MALME-3M melanoma = system: MALME-3M melanoma
MCF7 breast = system: MCF7 breast
MDA-MB-231 breast = system: MDA-MB-231 breast
MDA-MB-435 = system: MDA-MB-435
MDA-N = system: MDA-N
MOLT-4 leukemia = system: MOLT-4 leukemia
NCI-H226 lung = system: NCI-H226 lung
NCI-H23 lung = system: NCI-H23 lung
NCI-H460 lung = system: NCI-H460 lung
NCI/ADR-RES ovarian = system: NCI/ADR-RES ovarian
OVCAR-3 ovarian = system: OVCAR-3 ovarian
OVCAR-4 ovarian = system: OVCAR-4 ovarian
OVCAR-5 ovarian = system: OVCAR-5 ovarian
OVCAR-8 ovarian = system: OVCAR-8 ovarian
PC-3 prostate = system: PC-3 prostate
RPMI-8226 leukemia = system: RPMI-8226 leukemia
RXF 393 renal = system: RXF 393 renal
SF-268 CNS = system: SF-268 CNS
SF-295 CNS = system: SF-295 CNS
SF-539 CNS = system: SF-539 CNS
SK-MEL-2 melanoma = system: SK-MEL-2 melanoma
SK-MEL-28 melanoma = system: SK-MEL-28 melanoma
SK-OV-3 ovarian = system: SK-OV-3 ovarian
SN12C renal = system: SN12C renal
SNB-19 CNS = system: SNB-19 CNS
SNB-75 CNS = system: SNB-75 CNS
SW-620 colon = system: SW-620 colon
T-47D breast = system: T-47D breast
U251 CNS = system: U251 CNS
UACC-257 melanoma = system: UACC-257 melanoma
UACC-62 melanoma = system: UACC-62 melanoma
UO-31 renal = system: UO-31 renal
HOP-92 NSCLC = system: HOP-92 NSCLC
IGROV1 ovarian = system: IGROV1 ovarian
LOX IMVI melanoma = system: LOX IMVI melanoma
SK-MEL-5 melanoma = system: SK-MEL-5 melanoma
HL-60(TB) leukemia = system: HL-60(TB) leukemia
NCI-H522 lung = system: NCI-H522 lung
TK-10 renal = system: TK-10 renal

Work on `O=[N+]([O-])/C(C(Cl)=C(Cl)Cl)=C(\Nc1cccc2ccccc12)Sc1ccccc1` yielded a TGI (786-0 renal) of 38 µM, a TGI (A498 renal) of 23.5 µM and a TGI (A549 NSCLC) of 71.6 µM. The TGI (ACHN renal) was 28.1 µM, the TGI (BT-549 breast) was 35.4 µM and the TGI (CAKI-1 renal) was 29.1 µM. It also gave a TGI (CCRF-CEM leukemia) greater than 100 µM, a TGI (COLO 205 colon) of 28.7 µM and a TGI (DU-145 prostate) of 32 µM. It also gave a TGI (EKVX NSCLC) of 42.2 µM, a TGI (HCC-2998 colon) of 45.2 µM and a TGI (HCT-116 colon) of 56.3 µM. For the same molecule, the TGI (HCT-15 colon) was 33.1 µM, the TGI (HOP-62 NSCLC) was 50.5 µM and the TGI (HS 578T breast) was 27.2 µM. For the same molecule, the TGI (HT29 colon) was greater than 100 µM, the TGI (K-562 leukemia) was greater than 100 µM and the TGI (KM12 colon) was 32 µM. For the same molecule, the TGI (M14 melanoma) was greater than 100 µM, the TGI (MALME-3M melanoma) was 31.3 µM and the TGI (MCF7 breast) was 28 µM. For the same molecule, the TGI (MDA-MB-231 breast) was 23.4 µM, the TGI (MDA-MB-435) was 33.4 µM and the TGI (MDA-N) was 81 µM. For the same molecule, the TGI (MOLT-4 leukemia) was greater than 100 µM, the TGI (NCI-H226 lung) was 40.4 µM and the TGI (NCI-H23 lung) was 31.6 µM. The TGI (NCI-H460 lung) was greater than 100 µM, the TGI (NCI/ADR-RES ovarian) was 31 µM and the TGI (OVCAR-3 ovarian) was 21.8 µM. For the same molecule, the TGI (OVCAR-4 ovarian) was 35.7 µM, the TGI (OVCAR-5 ovarian) was 82.1 µM and the TGI (OVCAR-8 ovarian) was 28.6 µM. It also gave a TGI (PC-3 prostate) of 27.4 µM, a TGI (RPMI-8226 leukemia) greater than 100 µM and a TGI (RXF 393 renal) of 26.9 µM. It also gave a TGI (SF-268 CNS) of 26 µM, a TGI (SF-295 CNS) of 37.1 µM and a TGI (SF-539 CNS) of 37.4 µM. For the same molecule, the TGI (SK-MEL-2 melanoma) was 30.6 µM, the TGI (SK-MEL-28 melanoma) was 34 µM and the TGI (SK-OV-3 ovarian) was greater than 100 µM. For the same molecule, the TGI (SN12C renal) was 69.3 µM, the TGI (SNB-19 CNS) was 40 µM and the TGI (SNB-75 CNS) was 43.4 µM. It also gave a TGI (SW-620 colon) of 24.9 µM, a TGI (T-47D breast) of 44.8 µM and a TGI (U251 CNS) of 23.4 µM. The TGI (UACC-257 melanoma) was 42.3 µM, the TGI (UACC-62 melanoma) was 24.1 µM and the TGI (UO-31 renal) was 38.7 µM.

In the case of `CCCc1cc(=O)oc2c3c(c4c(c12)OC(C)(C)CC4)O[C@H](C)[C@@H](C)[C@H]3O`, the TGI (786-0 renal) is reported as 29.8 µM, the TGI (A549 NSCLC) is reported as 64 µM and the TGI (BT-549 breast) is reported as 26.6 µM. The TGI (CAKI-1 renal) was 35.1 µM, the TGI (CCRF-CEM leukemia) was 33.8 µM and the TGI (COLO 205 colon) was 33.6 µM. It also gave a TGI (DU-145 prostate) of 29.8 µM, a TGI (EKVX NSCLC) of 26.2 µM and a TGI (HCC-2998 colon) of 31.8 µM. It also gave a TGI (HCT-116 colon) of 29.4 µM, a TGI (HCT-15 colon) of 27.5 µM and a TGI (HOP-62 NSCLC) of 35.3 µM. The TGI (HOP-92 NSCLC) was 33.3 µM, the TGI (HS 578T breast) was 50.2 µM and the TGI (HT29 colon) was 22.7 µM. It also gave a TGI (IGROV1 ovarian) of 30.8 µM, a TGI (K-562 leukemia) of 21.1 µM and a TGI (KM12 colon) of 28.7 µM. For the same molecule, the TGI (LOX IMVI melanoma) was 31.7 µM, the TGI (M14 melanoma) was 37.2 µM and the TGI (MALME-3M melanoma) was 37.9 µM. For the same molecule, the TGI (MCF7 breast) was 43.2 µM, the TGI (MDA-MB-231 breast) was 30.9 µM and the TGI (MDA-MB-435) was 25.7 µM. For the same molecule, the TGI (MDA-N) was 23.7 µM, the TGI (MOLT-4 leukemia) was 27.8 µM and the TGI (NCI-H226 lung) was 34.2 µM. For the same molecule, the TGI (NCI-H23 lung) was 30.3 µM, the TGI (NCI-H460 lung) was 41.7 µM and the TGI (NCI/ADR-RES ovarian) was 33.1 µM. The TGI (OVCAR-3 ovarian) was 37.7 µM, the TGI (OVCAR-4 ovarian) was 28.6 µM and the TGI (OVCAR-5 ovarian) was 31.6 µM. It also gave a TGI (OVCAR-8 ovarian) of 32.6 µM, a TGI (PC-3 prostate) of 23.5 µM and a TGI (RPMI-8226 leukemia) of 18.8 µM. It also gave a TGI (RXF 393 renal) of 47.3 µM, a TGI (SF-268 CNS) of 35.1 µM and a TGI (SF-295 CNS) of 32 µM. It also gave a TGI (SF-539 CNS) of 41.9 µM, a TGI (SK-MEL-2 melanoma) of 49.1 µM and a TGI (SK-MEL-5 melanoma) of 29.3 µM. For the same molecule, the TGI (SK-OV-3 ovarian) was 31.7 µM, the TGI (SN12C renal) was 34.3 µM and the TGI (SNB-19 CNS) was 32.2 µM. It also gave a TGI (SNB-75 CNS) of 31.3 µM, a TGI (SW-620 colon) of 35.8 µM and a TGI (T-47D breast) of 29.8 µM. It also gave a TGI (U251 CNS) of 32.2 µM, a TGI (UACC-257 melanoma) of 28.1 µM and a TGI (UACC-62 melanoma) of 27.4 µM. For the same molecule, the TGI (UO-31 renal) was 26.7 µM.

`Cc1cc(C)c2cc(N)c(Cl)nc2n1` showed a TGI (786-0 renal) greater than 100 µM, a TGI (A549 NSCLC) greater than 100 µM and a TGI (ACHN renal) greater than 100 µM. The TGI (BT-549 breast) was greater than 100 µM, the TGI (CAKI-1 renal) was greater than 100 µM and the TGI (CCRF-CEM leukemia) was greater than 100 µM. For the same molecule, the TGI (COLO 205 colon) was greater than 100 µM, the TGI (DU-145 prostate) was greater than 100 µM and the TGI (EKVX NSCLC) was greater than 100 µM. It also gave a TGI (HCT-116 colon) greater than 100 µM, a TGI (HCT-15 colon) greater than 100 µM and a TGI (HL-60(TB) leukemia) greater than 100 µM. For the same molecule, the TGI (HOP-92 NSCLC) was greater than 100 µM, the TGI (HS 578T breast) was greater than 100 µM and the TGI (HT29 colon) was greater than 100 µM. The TGI (IGROV1 ovarian) was greater than 100 µM, the TGI (KM12 colon) was greater than 100 µM and the TGI (M14 melanoma) was greater than 100 µM. It also gave a TGI (MALME-3M melanoma) greater than 100 µM, a TGI (MCF7 breast) greater than 100 µM and a TGI (MDA-MB-231 breast) greater than 100 µM. It also gave a TGI (MDA-MB-435) greater than 100 µM, a TGI (MDA-N) greater than 100 µM and a TGI (NCI-H226 lung) greater than 100 µM. For the same molecule, the TGI (NCI-H23 lung) was greater than 100 µM, the TGI (NCI-H460 lung) was greater than 100 µM and the TGI (NCI-H522 lung) was greater than 100 µM. The TGI (NCI/ADR-RES ovarian) was greater than 100 µM, the TGI (OVCAR-5 ovarian) was greater than 100 µM and the TGI (OVCAR-8 ovarian) was greater than 100 µM. It also gave a TGI (PC-3 prostate) greater than 100 µM, a TGI (RPMI-8226 leukemia) greater than 100 µM and a TGI (RXF 393 renal) greater than 100 µM. For the same molecule, the TGI (SF-268 CNS) was greater than 100 µM, the TGI (SF-295 CNS) was greater than 100 µM and the TGI (SF-539 CNS) was greater than 100 µM. The TGI (SK-MEL-2 melanoma) was greater than 100 µM, the TGI (SK-MEL-5 melanoma) was greater than 100 µM and the TGI (SK-OV-3 ovarian) was greater than 100 µM. For the same molecule, the TGI (SN12C renal) was greater than 100 µM, the TGI (SNB-19 CNS) was greater than 100 µM and the TGI (SNB-75 CNS) was greater than 100 µM. It also gave a TGI (SW-620 colon) greater than 100 µM, a TGI (T-47D breast) greater than 100 µM and a TGI (TK-10 renal) greater than 100 µM. It also gave a TGI (U251 CNS) greater than 100 µM, a TGI (UACC-257 melanoma) greater than 100 µM and a TGI (UACC-62 melanoma) greater than 100 µM. It also gave a TGI (UO-31 renal) greater than 100 µM.
